Values after ≈ are worked out from the molar mass of the structure shown. Active and inactive are the calls of the source. The rule behind the calls is not given here.
Assays:
[1] = target: T1, Low molecular weight protein-tyrosine phosphatase A (Mycobacterium tuberculosis, UniProt P9WIA1); experiment: Inhibition of Mycobacterium tuberculosis PtpA using p-nitrophenyl phosphate as substrate preincubated for 10 mins followed by substrate addition measured every minute for 10 mins by UV-VIS spectrophotometric analysis
T1 sequence (P9WIA1 whole entry): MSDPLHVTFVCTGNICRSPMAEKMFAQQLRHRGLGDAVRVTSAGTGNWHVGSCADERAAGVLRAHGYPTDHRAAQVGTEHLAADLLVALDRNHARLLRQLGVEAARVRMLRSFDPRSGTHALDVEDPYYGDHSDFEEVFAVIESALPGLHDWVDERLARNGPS

[2] = target: T2, Tyrosine-protein phosphatase non-receptor type 1 (Homo sapiens, UniProt P18031); experiment: Inhibition of human PTP1B using p-nitrophenyl phosphate as substrate preincubated for 10 mins followed by substrate addition measured every minute for 10 mins by UV-VIS spectrophotometric analysis
T2 sequence (P18031 whole entry): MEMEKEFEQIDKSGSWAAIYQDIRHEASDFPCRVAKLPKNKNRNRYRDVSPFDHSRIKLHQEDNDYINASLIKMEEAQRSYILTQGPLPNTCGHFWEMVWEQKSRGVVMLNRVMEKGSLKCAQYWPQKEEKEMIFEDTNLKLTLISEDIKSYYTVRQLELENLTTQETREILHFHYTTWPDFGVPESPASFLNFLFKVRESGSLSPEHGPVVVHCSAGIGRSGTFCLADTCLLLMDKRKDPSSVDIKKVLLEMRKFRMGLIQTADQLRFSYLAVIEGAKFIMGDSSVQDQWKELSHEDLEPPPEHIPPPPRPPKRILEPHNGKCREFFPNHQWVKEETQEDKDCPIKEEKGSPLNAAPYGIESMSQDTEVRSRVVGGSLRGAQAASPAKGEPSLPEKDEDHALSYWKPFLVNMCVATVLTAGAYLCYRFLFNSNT

[3] = target: T3, Tyrosine-protein phosphatase non-receptor type 22 (Homo sapiens, UniProt Q9Y2R2); experiment: Inhibition of LYP (unknown origin) using p-nitrophenyl phosphate as substrate preincubated for 10 mins followed by substrate addition measured every minute for 10 mins by UV-VIS spectrophotometric analysis
T3 sequence (Q9Y2R2 whole entry): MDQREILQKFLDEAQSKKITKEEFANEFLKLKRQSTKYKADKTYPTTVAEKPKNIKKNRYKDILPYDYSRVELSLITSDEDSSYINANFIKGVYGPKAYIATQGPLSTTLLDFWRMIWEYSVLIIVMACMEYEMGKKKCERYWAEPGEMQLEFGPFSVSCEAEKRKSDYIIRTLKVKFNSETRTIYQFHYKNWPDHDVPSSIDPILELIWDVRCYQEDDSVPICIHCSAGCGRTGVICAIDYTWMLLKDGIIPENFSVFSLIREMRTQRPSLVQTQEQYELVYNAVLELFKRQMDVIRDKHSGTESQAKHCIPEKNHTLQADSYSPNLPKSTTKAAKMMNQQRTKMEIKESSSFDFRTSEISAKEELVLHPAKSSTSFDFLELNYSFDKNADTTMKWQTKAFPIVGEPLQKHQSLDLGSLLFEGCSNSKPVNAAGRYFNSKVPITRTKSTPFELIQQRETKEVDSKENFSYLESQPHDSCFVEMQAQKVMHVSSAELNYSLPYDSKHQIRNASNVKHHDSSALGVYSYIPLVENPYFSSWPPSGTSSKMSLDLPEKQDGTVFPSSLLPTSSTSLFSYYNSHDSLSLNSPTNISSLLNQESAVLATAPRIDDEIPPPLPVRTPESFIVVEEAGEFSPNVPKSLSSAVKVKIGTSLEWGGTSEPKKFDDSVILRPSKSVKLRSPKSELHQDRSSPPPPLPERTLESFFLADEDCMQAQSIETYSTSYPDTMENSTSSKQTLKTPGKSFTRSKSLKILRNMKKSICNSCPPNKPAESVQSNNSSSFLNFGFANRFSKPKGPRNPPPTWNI

[4] = target: T4, Tyrosine-protein phosphatase non-receptor type 12 (Homo sapiens, UniProt Q05209); experiment: Inhibition of PTP-PEST (unknown origin) using p-nitrophenyl phosphate as substrate preincubated for 10 mins followed by substrate addition measured every minute for 10 mins by UV-VIS spectrophotometric analysis
T4 sequence (Q05209 whole entry): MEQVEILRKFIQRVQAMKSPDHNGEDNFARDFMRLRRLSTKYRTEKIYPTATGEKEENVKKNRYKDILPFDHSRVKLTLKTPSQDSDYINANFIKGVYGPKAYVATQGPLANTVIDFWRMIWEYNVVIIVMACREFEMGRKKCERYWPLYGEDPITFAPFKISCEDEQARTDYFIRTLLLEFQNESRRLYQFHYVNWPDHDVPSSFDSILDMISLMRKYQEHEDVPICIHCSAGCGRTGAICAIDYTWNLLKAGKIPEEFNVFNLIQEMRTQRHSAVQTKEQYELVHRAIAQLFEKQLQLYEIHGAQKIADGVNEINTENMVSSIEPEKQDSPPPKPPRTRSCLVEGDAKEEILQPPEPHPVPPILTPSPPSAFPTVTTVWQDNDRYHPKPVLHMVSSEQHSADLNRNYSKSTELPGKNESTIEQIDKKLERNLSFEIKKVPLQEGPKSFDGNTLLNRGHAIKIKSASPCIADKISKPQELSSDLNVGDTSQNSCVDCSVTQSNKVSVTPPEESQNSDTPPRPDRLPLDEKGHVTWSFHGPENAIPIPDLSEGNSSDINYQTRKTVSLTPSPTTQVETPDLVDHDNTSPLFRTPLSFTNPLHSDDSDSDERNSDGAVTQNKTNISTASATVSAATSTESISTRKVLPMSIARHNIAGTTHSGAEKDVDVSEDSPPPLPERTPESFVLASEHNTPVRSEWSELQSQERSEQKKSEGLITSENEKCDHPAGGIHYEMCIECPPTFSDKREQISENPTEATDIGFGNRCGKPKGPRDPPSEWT

[5] = target: T5, Phosphotyrosine protein phosphatase (Mycobacterium tuberculosis, UniProt A0A045ISB3); experiment: Inhibition of Mycobacterium tuberculosis PtpB using p-nitrophenyl phosphate as substrate preincubated for 10 mins followed by substrate addition measured every minute for 10 mins by UV-VIS spectrophotometric analysis
T5 sequence (A0A045ISB3 whole entry): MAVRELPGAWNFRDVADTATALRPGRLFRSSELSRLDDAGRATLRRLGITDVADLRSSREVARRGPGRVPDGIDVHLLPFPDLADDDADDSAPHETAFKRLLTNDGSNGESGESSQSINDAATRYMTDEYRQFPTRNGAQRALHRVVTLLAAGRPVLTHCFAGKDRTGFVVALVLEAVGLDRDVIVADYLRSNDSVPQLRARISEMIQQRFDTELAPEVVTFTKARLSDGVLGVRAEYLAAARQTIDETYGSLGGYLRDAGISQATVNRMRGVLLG

[6] = target: T6, Phosphotyrosine protein phosphatase (Mycobacterium tuberculosis) (UniProt A0A045ISB3); experiment: Binding affinity to Mycobacterium tuberculosis PtpB assessed as sequence coverage level at 100 uM preincubated for 10 mins before trypsin addition by mass spectrometry based peptide mass fingerprint assay (reference value: 92%)
T6 sequence (whole entry): T5 sequence (A0A045ISB3 whole entry)

[7] = target: T6, Phosphotyrosine protein phosphatase (Mycobacterium tuberculosis); experiment: Time independent inhibition of Mycobacterium tuberculosis PtpB at 0.2 uM pre-incubated for 0 to 10 mins before p-nitrophenyl phosphate substrate addition
[8] = target: T7, Tyrosine-protein phosphatase non-receptor type 1 (Homo sapiens) (UniProt P18031); experiment: Binding affinity to human PTP1B assessed as protection against proteolytic cleavage at 400 uM preincubated for 10 mins before trypsin addition and measured after 2 hrs by mass spectrometry
T7 sequence (whole entry): T2 sequence (P18031 whole entry)

[9] = tested on: Mycobacterium tuberculosis; experiment: Antitubercular activity against Mycobacterium tuberculosis H37Ra ATCC 25177 after 7 days by resazurin microtiter assay; format: functional; conditions: H37Ra ATCC 25177, 168 h
[10] = Selectivity index, ratio of Ki for human PTP1B to Ki for Mycobacterium tuberculosis PtpB
[11] = target: T6, Phosphotyrosine protein phosphatase (Mycobacterium tuberculosis); experiment: Ratio of Kd for binding affinity to Mycobacterium tuberculosis PtpB by fluorescence based assay to Kd for binding affinity to Mycobacterium tuberculosis PtpB by ITC method
[12] = target: T5, Phosphotyrosine protein phosphatase; experiment: Binding affinity to Mycobacterium tuberculosis PtpB by fluorescence based assay
[13] = target: T2, Tyrosine-protein phosphatase non-receptor type 1; experiment: Non-competitive inhibition of human PTP1B using p-nitrophenyl phosphate as substrate up to 7 uM preincubated for 10 mins followed by substrate addition measured every minute for 10 mins by Michaelis-Menten plot analysis
[14] = target: T5, Phosphotyrosine protein phosphatase; experiment: Binding affinity to Mycobacterium tuberculosis PtpB by ITC method
[15] = target: T6, Phosphotyrosine protein phosphatase (Mycobacterium tuberculosis); experiment: Reversible inhibition of Mycobacterium tuberculosis PtpB using p-nitrophenyl phosphate as substrate assessed as enzyme recovery at 10 times IC50 preincubated for 10 mins followed by 100-fold dilution; parameters: scale not given: the % may be the effect or the level left
[16] = Cytotoxicity against human THP1 cells after 72 hrs by MTT assay; format: cell-based; conditions: THP-1 cells
[17] = target: T6, Phosphotyrosine protein phosphatase (Mycobacterium tuberculosis); experiment: Binding affinity to Mycobacterium tuberculosis PtpB assessed as Stern-Volmer quenching constant by UV-VIS spectrophotometric analysis
[18] = target: T5, Phosphotyrosine protein phosphatase; experiment: Inhibition of Mycobacterium tuberculosis PtpB using p-nitrophenyl phosphate as substrate preincubated for 10 mins followed by substrate addition measured every minute for 10 mins by Michaelis-Menten plot analysis
[19] = target: T6, Phosphotyrosine protein phosphatase (Mycobacterium tuberculosis); experiment: Binding affinity to Mycobacterium tuberculosis PtpB assessed as binding constant by fluorescence based assay
[20] = target: T6, Phosphotyrosine protein phosphatase (Mycobacterium tuberculosis); experiment: Binding affinity to Mycobacterium tuberculosis PtpB assessed as binding constant by ITC method
[21] = target: T6, Phosphotyrosine protein phosphatase (Mycobacterium tuberculosis); experiment: Binding affinity to Mycobacterium tuberculosis PtpB assessed as fluorescence quenching at 0.1 to 4.7 uM by spectropolarimetry
[22] = target: T5, Phosphotyrosine protein phosphatase; experiment: Binding affinity to Mycobacterium tuberculosis PtpB by UV-VIS spectrophotometric analysis
[23] = target: T6, Phosphotyrosine protein phosphatase (Mycobacterium tuberculosis); experiment: Non-competitive inhibition of Mycobacterium tuberculosis PtpB using p-nitrophenyl phosphate as substrate up to 0.3 uM preincubated for 10 mins followed by substrate addition measured every minute for 10 mins by Michaelis-Menten plot analysis
[24] = target: T6, Phosphotyrosine protein phosphatase (Mycobacterium tuberculosis); experiment: Binding affinity to Mycobacterium tuberculosis PtpB assessed as protection against proteolytic cleavage at 100 to 400 uM preincubated for 10 mins before trypsin addition by mass spectrometry
[25] = tested on: Mycobacterium tuberculosis; experiment: Antitubercular activity against Mycobacterium tuberculosis H37Ra ATCC 25177 infected in human THP1 cells assessed as reduction in CFU at 14.4 uM after 72 hrs relative to control; format: functional; conditions: H37Ra ATCC 25177, THP-1, 72 h, read-out: GI

Row | SMILES | IC50 [1] | IC50 [2] | IC50 [3] | IC50 [4] | IC50 [5] | other results
1 | CC(C)=CCc1c(-c2ccc(O)cc2O)oc2c3c(cc(O)c2c1=O)OC(C)(C)C=C3 [MORUSIN] | 4.65 µM | 10.3 µM | 15 µM | > 100 µM | 5.26 µM | –
2 | CC(C)=CCc1c(O)cc2c(c1O)C(=O)C[C@@H](c1cc3c(cc1O)OC(C)(C)C=C3)O2 [CUDRAFLAVANONE A] | 2.74 µM | 4.31 µM | 9.54 µM | 18.6 µM | 5.07 µM | –
3 | CC1=C[C@@H](c2c(O)ccc([C@@H]3CC(=O)c4c(O)cc(O)cc4O3)c2O)[C@H](C(=O)c2ccc(O)cc2O)[C@@H](c2ccc(O)cc2O)C1 | 14 µM | 7.98 µM | 12.1 µM | 18.6 µM | 4.7 µM | –
4 | CC(C)=CCc1c(-c2ccc(O)cc2O)oc2c([C@@H]3C=C(C)C[C@H](c4ccc(O)cc4O)[C@H]3C(=O)c3ccc(O)cc3O)c(O)cc(O)c2c1=O | 5.89 µM | 4.56 µM | 18.5 µM | 12.4 µM | 0.83 µM | Activity [6]: 90%; inhibition [7]: Active; Activity [8]: inactive; MIC [9]: 32 µg/mL (≈ 46.2 µM); Ratio Ki [10]: 26; Ratio [11]: 2; Kd [12]: 0.7 µM; Ki [13]: 0.2 µM; Kd [14]: 2.9 µM; Activity [15]: 40%; CC50 at 72 h [16]: 33.8 µg/mL (≈ 48.8 µM); Ka [17]: 1 ×10⁶ /M; Ki [18]: 0.39 µM; Ka [19]: 1.4 ×10⁶ /M; Ka [20]: 3.5 ×10⁵ /M; Activity [21]: Active; Kd [22]: 1 µM; inhibition [23]: Active; Activity [24]: Active; inhibition of growth at 14.4 µM [25]: 61.3%
5 | O=c1cc(-c2ccc(O)cc2O)oc2cc(O)cc(O)c12 [NORARTOCARPETIN] | 12 µM | 5.18 µM | 30.3 µM | 20.9 µM | 1.2 µM | –
